From US8192962B2, “Processes for detecting toxic substances” (Daikin Industries, Ltd., priority 2001, dated 2012)

Tested on: Energy system protein genes
Experiment: DNA chip mRNA expression in yeast, energy system protein genes (Table 4)
Type: cell-based, Saccharomyces cerevisiae S288C
Description: Yeast (Saccharomyces cerevisiae S288C (α SUC2mal mel gap2 CUP1)) were incubated at 25° C. on YPD medium (yeast extract 1%, polypepton 2%, glucose 2%). One of toxic chemical substances was added to the cells at logarithmic growth phase, and the cells were further incubated for two hours. Cells were cultured without any chemical substance in the same condition, and were used as control. Concentrations of the chemical substances were defined to inhibit the growth of the yeast but not lead to death.
After completion of the incubation, the culture was centrifuged to collect the cells. To the cells, sodium acetate buffer (50 mM sodium acetate, 10 mM EDTA, 1% SDS) was added, and the mixture was shaken at 65° C. for five minutes, followed by returning to room temperature, and obtaining the supernatant, of which the procedures were repeated two times. To the supernatant, ½ amount of a solution of phenol/chloroform was added, and the mixture was centrifuged to give a supernatant, which was added with an equal amount of chloroform, and the mixture was centrifuged to give a supernatant. To the supernatant, an equal amount of isopropanol containing 0.3 M sodium acetate was added, and the mixture was allowed to stand at room temperature for 30 minutes, after which the mixture was centrifuged to give a sediment of the whole RNAs. Seventy % ethanol was added to the sediment, and the mixture was again centrifuged to give a sediment, which was then dried and dissolved in water. mRNA was isolated from the whole RNAs as followings. In view of the fact that a poly A chain is attached to the 3′ terminus of mRNA, a polynucleotide having a poly T structure which was immobilized on the surface of latex beads was used to trap the mRNA, and then the mRNA was washed and eluted with spine column (Oligotex-dT30<Super>mRNA Purification Kit, Takara). Reverse transcription of the mRNA was conducted with a reverse transcriptase (Super Script II Reverse Transcriptase; catalogue No. 18064-014, GibcoBRL) using fluorescence-labeled nucleotides to give cDNAs that were introduced with Cy3-dUTP or Cy5-dUTP during the reverse transcription.
The labeled cDNAs were dissolved in TE buffer (10mM Tris-HCl/1 mM EDTA, pH8.0), and the solution was dropped on the DNA chip containing the whole genes of yeast (DNA Chip Research Inc. Japan) so that the cDNAs were hybridized on the DNA chip at 65° C. for over 12 hours. The fluoresces intensity of the DNA chip was read with a scanner, and the ratio relative to the fluorescence intensity resulting from the absence of chemical substance was estimated as the following, which is shown in Tables 1 to 9: […]

Measured: The level of expressed mRNA in the presence of chemical substance/The level of expressed mRNA in the absence of chemical substance

[Cl][Cd][Cl] [(2), CdCl2]
1.4: yeast gene YBR001C, cells incubated two hours with the chemical substance | yeast gene YFR053C | yeast gene YLR345W | yeast gene YPL061W, cells incubated two hours with the chemical substance | yeast gene YPL240C | yeast gene YPR184W, cells incubated two hours with the chemical substance
3.7: yeast gene YGR043C | yeast gene YJR155W
2.5: yeast gene YLR354C, cells incubated two hours with the chemical substance | yeast gene YNL241C
1.5: yeast gene YBL058W, cells incubated two hours with the chemical substance | yeast gene YCR012W | yeast gene YJL166W, cells incubated two hours with the chemical substance | yeast gene YPL275W, cells incubated two hours with the chemical substance | yeast gene YPL276W, cells incubated two hours with the chemical substance
4.7: yeast gene YJL216C, cells incubated two hours with the chemical substance
2.9: yeast gene YMR118C
2.4: yeast gene YIL160C | yeast gene YKR097W
1.1: yeast gene YDL078C, cells incubated two hours with the chemical substance | yeast gene YDR079W, cells incubated two hours with the chemical substance | yeast gene YDR377W, cells incubated two hours with the chemical substance | yeast gene YJR121W, cells incubated two hours with the chemical substance | yeast gene YKL141W, cells incubated two hours with the chemical substance | yeast gene YLR038C, cells incubated two hours with the chemical substance | yeast gene YLR295C, cells incubated two hours with the chemical substance, 25° C., YPD medium | yeast gene YMR073C, cells incubated two hours with the chemical substance | yeast gene YMR323W, cells incubated two hours with the chemical substance
15.0: yeast gene YGR087C, cells incubated two hours with the chemical substance
1.2: yeast gene YCR046C, cells incubated two hours with the chemical substance | yeast gene YCR105W, cells incubated two hours with the chemical substance | yeast gene YDR298C, cells incubated two hours with the chemical substance | yeast gene YGR244C | yeast gene YKR009C, cells incubated two hours with the chemical substance | yeast gene YML120C, cells incubated two hours with the chemical substance | yeast gene YOR142W, cells incubated two hours with the chemical substance
5.3: yeast gene YGL256W, cells incubated two hours with the chemical substance
1.3: yeast gene YDL107W, cells incubated two hours with the chemical substance | yeast gene YDR050C, cells incubated two hours with the chemical substance | yeast gene YGL062W | yeast gene YGR254W | yeast gene YKL016C, cells incubated two hours with the chemical substance | yeast gene YLR395C, cells incubated two hours with the chemical substance | yeast gene YNL202W, cells incubated two hours with the chemical substance | yeast gene YOR178C, cells incubated two hours with the chemical substance | yeast gene YPL088W
0.6: yeast gene YLR044C, cells incubated two hours with the chemical substance | yeast gene YLR134W, cells incubated two hours with the chemical substance | yeast gene YLR304C, cells incubated two hours with the chemical substance
2.6: yeast gene YLR377C, cells incubated two hours with the chemical substance
5.6: yeast gene YCL040W
1.8: yeast gene YAL060W | yeast gene YDL174C | yeast gene YDL181W, cells incubated two hours with the chemical substance | yeast gene YMR267W, cells incubated two hours with the chemical substance, 25° C., YPD medium
0.8: yeast gene YGL187C, cells incubated two hours with the chemical substance | yeast gene YKL060C, cells incubated two hours with the chemical substance | yeast gene YKL148C, cells incubated two hours with the chemical substance
0.9: yeast gene YBL099W, cells incubated two hours with the chemical substance | yeast gene YEL024W, cells incubated two hours with the chemical substance | yeast gene YER178W | yeast gene YGL205W, cells incubated two hours with the chemical substance | yeast gene YJL052W | yeast gene YJR048W | yeast gene YKR058W, cells incubated two hours with the chemical substance, 25° C., YPD medium | yeast gene YML129C, cells incubated two hours with the chemical substance | yeast gene YNL071W
4.1: yeast gene YPL171C
5.9: yeast gene YFL057C
2.3: yeast gene YHR179W
1.6: yeast gene YDR231C | yeast gene YGL191W, cells incubated two hours with the chemical substance | yeast gene YGR174C, cells incubated two hours with the chemical substance | yeast gene YIR031C, cells incubated two hours with the chemical substance | yeast gene YML087C | yeast gene YMR261C, cells incubated two hours with the chemical substance | yeast gene YOR388C, cells incubated two hours with the chemical substance
1.0: yeast gene YBR185C, cells incubated two hours with the chemical substance | yeast gene YDL067C, cells incubated two hours with the chemical substance | yeast gene YDR529C, cells incubated two hours with the chemical substance | yeast gene YGL018C, cells incubated two hours with the chemical substance | yeast gene YGR062C, cells incubated two hours with the chemical substance, 25° C., YPD medium | yeast gene YGR192C | yeast gene YLR258W, cells incubated two hours with the chemical substance | yeast gene YLR284C, cells incubated two hours with the chemical substance
4.5: yeast gene YOL165C
1.7: yeast gene YDL021W | yeast gene YJR009C | yeast gene YPL262W, cells incubated two hours with the chemical substance
0.7: yeast gene YBR221C, cells incubated two hours with the chemical substance | yeast gene YEL039C, cells incubated two hours with the chemical substance | yeast gene YMR205C, cells incubated two hours with the chemical substance
0.5: yeast gene YJL121C, cells incubated two hours with the chemical substance | yeast gene YLL041C, cells incubated two hours with the chemical substance | yeast gene YOL086C, cells incubated two hours with the chemical substance
2.0: yeast gene YDR178W, cells incubated two hours with the chemical substance | yeast gene YPL031C, cells incubated two hours with the chemical substance | yeast gene YPR048W, cells incubated two hours with the chemical substance
2.2: yeast gene YDR001C
3.6: yeast gene YNL331C
